3 molecules from PubChem BioAssay AID1259407 (Chemical Carcinogenesis Research Information System (CCRIS), 2018) can be followed below.

The data set has as its system CCRIS mutagenicity, Ames/micronucleus/aberration tests. As to the kind of experiment: CCRIS mutagenicity studies.
Setting [1] is: Test System: AMES SALMONELLA TYPHIMURIUM, Strain/Indicator: TA98, Metabolic Activation: NONE, Method: STANDARD PLATE.
Where [2] appears, read: Test System: AMES SALMONELLA TYPHIMURIUM, Strain/Indicator: TA98, Metabolic Activation: RAT, LIVER, S-9, AROCLOR 1254, Method: STANDARD PLATE.
Where [3] appears, read: Test System: AMES SALMONELLA TYPHIMURIUM, Strain/Indicator: TA100, Metabolic Activation: NONE, Method: STANDARD PLATE.
Setting [4] is: Test System: AMES SALMONELLA TYPHIMURIUM, Strain/Indicator: TA100, Metabolic Activation: RAT, LIVER, S-9, AROCLOR 1254, Method: STANDARD PLATE.
The mark [5] stands for this setting: Test System: AMES SALMONELLA TYPHIMURIUM, Strain/Indicator: TA1535, Metabolic Activation: NONE, Method: STANDARD PLATE.
[6] abbreviates: Test System: AMES SALMONELLA TYPHIMURIUM, Strain/Indicator: TA1535, Metabolic Activation: RAT, LIVER, S-9, AROCLOR 1254, Method: STANDARD PLATE.
The mark [7] stands for this setting: Test System: AMES SALMONELLA TYPHIMURIUM, Strain/Indicator: TA1537, Metabolic Activation: NONE, Method: STANDARD PLATE.
The mark [8] stands for this setting: Test System: AMES SALMONELLA TYPHIMURIUM, Strain/Indicator: TA1537, Metabolic Activation: RAT, LIVER, S-9, AROCLOR 1254, Method: STANDARD PLATE.
Setting [9] is: Test System: AMES SALMONELLA TYPHIMURIUM, Strain/Indicator: TA1538, Metabolic Activation: NONE, Method: STANDARD PLATE.
Where [10] appears, read: Test System: AMES SALMONELLA TYPHIMURIUM, Strain/Indicator: TA1538, Metabolic Activation: RAT, LIVER, S-9, AROCLOR 1254, Method: STANDARD PLATE.

Activity calls are given as the source filed them. The rule behind the calls is not given here.

For the molecule `O=c1[nH]c(=O)n([C@H]2C[C@H](O)[C@@H](CO)O2)cc1CCCl`, the mutagenic call was “inactive; negative” (End Point: IN VITRO MICRONUCLEUS, Test System: V79 CHINESE HAMSTER CELLS, Metabolic Activation: NONE); “inactive; negative” (End Point: IN VITRO MICRONUCLEUS, Test System: V79 CHINESE HAMSTER CELLS, Metabolic Activation: RAT, LIVER, S-9, AROCLOR 1254); “inactive; negative” (End Point: IN VIVO MICRONUCLEUS, Test System: BONE MARROW POLYCHROMATIC ERYTHROCYTES, Species: MOUSE, Strain/Sex: CD-1/MALE, FEMALE, Route: GAVAGE); “inactive; negative” (Test System: AMES SALMONELLA TYPHIMURIUM, Strain/Indicator: TA97, Metabolic Activation: NONE, Method: PREINCUBATION); “inactive; negative” (Test System: AMES SALMONELLA TYPHIMURIUM, Strain/Indicator: TA97, Metabolic Activation: RAT, LIVER, S-9, AROCLOR 1254, Method: PREINCUBATION); “inactive; negative” (Test System: AMES SALMONELLA TYPHIMURIUM, Strain/Indicator: TA98, Metabolic Activation: NONE, Method: PREINCUBATION). Also, the mutagenic call was “inactive; negative” under setting [1]; “inactive; negative” (Test System: AMES SALMONELLA TYPHIMURIUM, Strain/Indicator: TA98, Metabolic Activation: RAT, LIVER, S-9, AROCLOR 1254, Method: PREINCUBATION); “inactive; negative” under setting [2]; “inactive; negative” (Test System: AMES SALMONELLA TYPHIMURIUM, Strain/Indicator: TA100, Metabolic Activation: NONE, Method: PREINCUBATION); “inactive; negative” under setting [3]; “inactive; negative” (Test System: AMES SALMONELLA TYPHIMURIUM, Strain/Indicator: TA100, Metabolic Activation: RAT, LIVER, S-9, AROCLOR 1254, Method: PREINCUBATION). Further, the mutagenic call was “inactive; negative” under setting [4]; “inactive; negative” (Test System: AMES SALMONELLA TYPHIMURIUM, Strain/Indicator: TA102, Metabolic Activation: NONE, Method: PREINCUBATION); “active; positive” (Test System: AMES SALMONELLA TYPHIMURIUM, Strain/Indicator: TA102, Metabolic Activation: NONE, Method: STANDARD PLATE); “inactive; negative” (Test System: AMES SALMONELLA TYPHIMURIUM, Strain/Indicator: TA102, Metabolic Activation: RAT, LIVER, S-9, AROCLOR 1254, Method: PREINCUBATION); “active; positive” (Test System: AMES SALMONELLA TYPHIMURIUM, Strain/Indicator: TA102, Metabolic Activation: RAT, LIVER, S-9, AROCLOR 1254, Method: STANDARD PLATE); “inactive; negative” (Test System: AMES SALMONELLA TYPHIMURIUM, Strain/Indicator: TA104, Metabolic Activation: NONE, Method: PREINCUBATION). Moreover, the mutagenic call is, setting by setting: (Test System: AMES SALMONELLA TYPHIMURIUM, Strain/Indicator: TA104, Metabolic Activation: RAT, LIVER, S-9, AROCLOR 1254, Method: PREINCUBATION) “inactive; negative”; (Test System: AMES SALMONELLA TYPHIMURIUM, Strain/Indicator: TA1535, Metabolic Activation: NONE, Method: PREINCUBATION) “inactive; negative”; under setting [5], “active; positive”; (Test System: AMES SALMONELLA TYPHIMURIUM, Strain/Indicator: TA1535, Metabolic Activation: RAT, LIVER, S-9, AROCLOR 1254, Method: PREINCUBATION) “inactive; negative”; under setting [6], “active; positive”; (Test System: AMES SALMONELLA TYPHIMURIUM, Strain/Indicator: TA1537, Metabolic Activation: NONE, Method: PREINCUBATION) “inactive; negative”. For the same molecule, the mutagenic call runs as follows: under setting [7], “inactive; negative”; (Test System: AMES SALMONELLA TYPHIMURIUM, Strain/Indicator: TA1537, Metabolic Activation: RAT, LIVER, S-9, AROCLOR 1254, Method: PREINCUBATION) “inactive; negative”; under setting [8], “inactive; negative”; (Test System: AMES SALMONELLA TYPHIMURIUM, Strain/Indicator: TA1538, Metabolic Activation: NONE, Method: PREINCUBATION) “inactive; negative”; under setting [9], “inactive; negative”; (Test System: AMES SALMONELLA TYPHIMURIUM, Strain/Indicator: TA1538, Metabolic Activation: RAT, LIVER, S-9, AROCLOR 1254, Method: PREINCUBATION) “inactive; negative”. Moreover, the mutagenic call reads like this: under setting [10], “inactive; negative”; (Test System: CHINESE HAMSTER V-79, Strain/Indicator: V-79/8-AZAGUANINE, Metabolic Activation: NONE) “active; positive”.

Take `CC(N)=O`: the mutagenic call was “inactive; negative” (End Point: IN VIVO MICRONUCLEUS, Test System: BLOOD ERYTHROCYTES, Species: MOUSE, Strain/Sex: CD-1/MALE, Route: INTRAPERITONEAL INJECTION); “inactive; negative” under setting [1]; “inactive; negative” (Test System: AMES SALMONELLA TYPHIMURIUM, Strain/Indicator: TA98, Metabolic Activation: RAT, LIVER, S-9, Method: STANDARD PLATE); “inactive; negative” under setting [3]; “inactive; negative” (Test System: AMES SALMONELLA TYPHIMURIUM, Strain/Indicator: TA100, Metabolic Activation: RAT, LIVER, S-9, Method: STANDARD PLATE); “inactive; negative” (Test System: Ames Salmonella typhimurium, Strain/Indicator: YG7108pin3ERb5, Metabolic Activation: None, Method: Standard plate).

`O=c1[nH][nH]c2ccccc12`: the mutagenic call (Test System: AMES SALMONELLA TYPHIMURIUM, Strain/Indicator: TA98, Metabolic Activation: HAMSTER, LIVER, S-9, AROCLOR 1254, Method: STANDARD PLATE) was “inactive; negative”; the mutagenic call under setting [1] is “inactive; negative”; the mutagenic call under setting [2] is “inactive; negative”; the mutagenic call (Test System: AMES SALMONELLA TYPHIMURIUM, Strain/Indicator: TA100, Metabolic Activation: HAMSTER, LIVER, S-9, AROCLOR 1254, Method: STANDARD PLATE) is “inactive; negative”; the mutagenic call under setting [3] is “inactive; negative”; the mutagenic call under setting [4] is “inactive; negative”. Also, the mutagenic call (Test System: AMES SALMONELLA TYPHIMURIUM, Strain/Indicator: TA1535, Metabolic Activation: HAMSTER, LIVER, S-9, AROCLOR 1254, Method: STANDARD PLATE) is “inactive; negative”; the mutagenic call under setting [5] was “inactive; negative”; the mutagenic call under setting [6] was “inactive; negative”; the mutagenic call (Test System: AMES SALMONELLA TYPHIMURIUM, Strain/Indicator: TA1537, Metabolic Activation: HAMSTER, LIVER, S-9, AROCLOR 1254, Method: STANDARD PLATE) was “inactive; negative”; the mutagenic call under setting [7] is “inactive; negative”; the mutagenic call under setting [8] is “inactive; negative”. Also, the mutagenic call runs as follows: (Test System: AMES SALMONELLA TYPHIMURIUM, Strain/Indicator: TA1538, Metabolic Activation: HAMSTER, LIVER, S-9, AROCLOR 1254, Method: STANDARD PLATE) “inactive; negative”; under setting [9], “inactive; negative”; under setting [10], “inactive; negative”; (Test System: MOUSE LYMPHOMA, Strain/Indicator: L5178Y (TK+/TK-), Metabolic Activation: NONE, Method: SUSPENSION/PLATE) “active; positive. reevaluation of results: positive”; (Test System: MOUSE LYMPHOMA, Strain/Indicator: L5178Y (TK+/TK-), Metabolic Activation: RAT, LIVER, S-9, AROCLOR 1254, Method: SUSPENSION/PLATE) “inactive; negative. reevaluation of results: negative”.
